Read-outs that look alike come from different tables or passages of the source.
Key:
dicots (radishes) = conditions: solution in water at 0.5% and 0.1%
Source text: (§1) Numerous natural compounds were screened for their ability to inhibit the germination of seeds. A single seed was placed in each well of a 96-well plate followed by a solution of each compound in water at both 0.5% and 0.1%. Germination was monitored at varying intervals, depending on the germination time in the control groups for the particular seed being used in the study.

monocots (wheat) = conditions: solution in water at 0.5% and 0.1%
Source text: as §1

[1] = system: Lactuca sativa (lettuce) seed; conditions: stepwise dilution series from 25% to 0%
Source text: Numerous natural compounds were screened for their ability to inhibit the germination of dicot seeds. A single seed of Lactuca sativa (lettuce) was placed in each well of a 96-well plate followed by a solution of each compound in a stepwise dilution series from 25% to 0%. Germination was monitored daily.

[2] = system: Poa annua (annual bluegrass); conditions: one week, relative to control
Experimental: (§2) To further test the inhibitory effect of formic acid on germinating seeds, pots with 6-cm diameter were filled with 60 mL of silty clay loam soil passed through a 2-mm sieve, and five (5) seeds of either Taraxacum officinale (dandelion, representing a broadleaved weed) or Poa annua (annual bluegrass, representing a grass weed) were planted on the top. A solid form of the composition containing corn gluten meal granules (1-2 mm diameter) soaked in 0%, 5%, 10% or 20% formic acid solution and dried were placed on the top of the soil at rates 0.1, 0.25, 0.5 and 1.0 g/pot. The pots were kept at optimum water content under growth lights with a 12-h light/dark period at room temperature, and the number of germinated seeds was counted after one week.

[3] = system: Taraxacum officinale (dandelion); conditions: one week, relative to control
Experimental: as §2

dicot seeds = conditions: charcoal saturated at 1 mL acid/1 g charcoal, applied to soil in flats; FIG. 2
Source text: (§3) Charcoal was applied to soil in flats containing a known number of seeds, either monocot or dicot, and germination was monitored in each of the treatment groups following intervals determined by the rate of germination in controls.

monocot seeds = conditions: charcoal saturated at 1 mL acid/1 g charcoal, applied to soil in flats; FIG. 1
Source text: as §3

Lactuca sativa (lettuce) = conditions: for germination rate potting mix clay / germination rate soil (silty clay loam) clay / germination rate potting mix corn starch / germination rate soil (silty clay loam) corn starch / germination rate potting mix sand / germination rate soil (silty clay loam) sand: 7 days, relative to untreated control
Experimental: To test different carriers for formic acid, corn starch (powder), clay (granular, >2 mm diameter) and sand (small grain) were saturated with formic acid solutions (1, 3, and 5%) and dried at room temperature. Dry product (7.5 mL) was mixed with 60 mL of either potting mix or soil, and the mixture was placed in a small pot. Five (5) seeds of Lactuca sativa (lettuce) were planted on the top of each pot, and the seeds were covered with sand. The pots were incubated at room temperature under continuous light for 7 days, after which the number of seeds germinated in each pot was recorded and presented as a germination rate relative to the untreated control.

apple seedlings = system: apple seedlings
Experimental: In order to estimate the length of time during which the presence of formic acid in the soil would have a negative effect on new, and perhaps desirable, plantings, a residue study was performed. Holes were cut into the bottoms of flats. The flats were then filled with soil and treated with charcoal immersed in either formic acid or water, just as described above. Soil was watered regularly in order to simulate natural growing conditions and soil leaching. Ten apple seedlings were planted in individual flats containing one treatment or the other at intervals of one week and survival was monitored for one week following each planting.

[4] = system: dicotyledonous radish plants (Raphanus sativas); conditions: foliar spray at all concentrations (1%, 3%, 5%); one day post-treatment
Source text: (§4) In order to determine whether formic acid could be used as a foliar herbicide it was applied as a foliar spray to the leaves of dicotyledonous radish plants (Raphanus sativas) and monocotyledonous wheat plants (Triticum aestivum). Solutions were applied to plants using a small handheld sprayer.
(§5) Formic acid and acetic acid solutions at three concentrations (1%, 3%, 5%) were applied and water was used as a check. A barrier was inserted between the rows of plants on either side of the row being treated to avoid drift of sprays into neighboring rows. Plants were evaluated at 24-hour and 72-hour intervals for the number of surviving plants and a percentage was derived from this number in comparison with the number of plants originally present in the row.

[5] = system: monocotyledonous wheat plants (Triticum aestivum); conditions: one day post-treatment
Source text: as §4, §5

[6] = 5% formic acid in corn gluten meal granules 1-2 mm, 0.1 g/pot
[7] = 5% formic acid in corn gluten meal granules 1-2 mm, 0.25 g/pot
[8] = 5% formic acid in corn gluten meal granules 1-2 mm, 0.5 g/pot
[9] = 5% formic acid in corn gluten meal granules 1-2 mm, 1 g/pot
[10] = 10% formic acid in corn gluten meal granules 1-2 mm, 0.1 g/pot
[11] = 10% formic acid in corn gluten meal granules 1-2 mm, 0.25 g/pot
[12] = 10% formic acid in corn gluten meal granules 1-2 mm, 0.5 g/pot
[13] = 10% formic acid in corn gluten meal granules 1-2 mm, 1 g/pot
[14] = 20% formic acid in corn gluten meal granules 1-2 mm, 0.1 g/pot
[15] = 20% formic acid in corn gluten meal granules 1-2 mm, 0.25 g/pot
[16] = 20% formic acid in corn gluten meal granules 1-2 mm, 0.5 g/pot
[17] = 20% formic acid in corn gluten meal granules 1-2 mm, 1 g/pot
[18] = 20% formic acid in corn gluten meal granules 1-2 mm, 1 g/pot, listed as formic acid

O=CO [Formic acid]
ability to inhibit germination of seeds (dicots (radishes)): inhibit germination of seeds
ability to inhibit germination of seeds (monocots (wheat)): inhibit germination of seeds
threshold value to inhibit germination of seeds [1]: 0.0013%
germination rate (%) annual bluegrass [2, 6]: 100%
germination rate (%) annual bluegrass [2, 7]: 82%
germination rate (%) annual bluegrass [2, 8]: 82%
germination rate (%) annual bluegrass [2, 9]: 82%
germination rate (%) annual bluegrass [2, 10]: 100%
germination rate (%) annual bluegrass [2, 11]: 100%
germination rate (%) annual bluegrass [2, 12]: 54%
germination rate (%) annual bluegrass [2, 13]: 54%
germination rate (%) annual bluegrass [2, 14]: 100%
germination rate (%) annual bluegrass [2, 15]: 54%
germination rate (%) annual bluegrass [2, 16]: 27%
germination rate (%) annual bluegrass [2, 17]: 0%
germination rate (%) annual bluegrass [2, 18]: inhibited the germination
germination rate (%) dandelion [3, 6]: 100%
germination rate (%) dandelion [3, 7]: 50%
germination rate (%) dandelion [3, 8]: 0%
germination rate (%) dandelion [3, 9]: 0%
germination rate (%) dandelion [3, 10]: 0%
germination rate (%) dandelion [3, 11]: 0%
germination rate (%) dandelion [3, 12]: 0%
germination rate (%) dandelion [3, 13]: 100%
germination rate (%) dandelion [3, 14]: 0%
germination rate (%) dandelion [3, 15]: 0%
germination rate (%) dandelion [3, 16]: 0%
germination rate (%) dandelion [3, 17]: 0%
germination rate (%) dandelion [3, 18]: inhibited the germination
effect on the germination of dicot seeds (dicot seeds): profound effect
effect on the germination of monocot seeds (monocot seeds): profound effect
germination rate potting mix clay (Lactuca sativa (lettuce); 1% formic acid on clay): 100
germination rate soil (silty clay loam) clay (Lactuca sativa (lettuce); 1% formic acid on clay): 100
germination rate potting mix corn starch (Lactuca sativa (lettuce); 1% formic acid on corn starch): 100
germination rate soil (silty clay loam) corn starch (Lactuca sativa (lettuce); 1% formic acid on corn starch): 100
germination rate potting mix sand (Lactuca sativa (lettuce); 1% formic acid on sand): 100
germination rate soil (silty clay loam) sand (Lactuca sativa (lettuce); 1% formic acid on sand): 100
germination rate potting mix clay (Lactuca sativa (lettuce); 3% formic acid on clay): 80
germination rate soil (silty clay loam) clay (Lactuca sativa (lettuce); 3% formic acid on clay): 100
germination rate potting mix corn starch (Lactuca sativa (lettuce); 3% formic acid on corn starch): 100
germination rate soil (silty clay loam) corn starch (Lactuca sativa (lettuce); 3% formic acid on corn starch): 75
germination rate potting mix sand (Lactuca sativa (lettuce); 3% formic acid on sand): 80
germination rate soil (silty clay loam) sand (Lactuca sativa (lettuce); 3% formic acid on sand): 100
control of germination of lettuce, comparison of tested products (Lactuca sativa (lettuce); 5% formic acid imbedded in clay granules): best control of germination
germination rate potting mix clay (Lactuca sativa (lettuce); 5% formic acid on clay): 60
germination rate soil (silty clay loam) clay (Lactuca sativa (lettuce); 5% formic acid on clay): 50
germination rate potting mix corn starch (Lactuca sativa (lettuce); 5% formic acid on corn starch): 100
germination rate soil (silty clay loam) corn starch (Lactuca sativa (lettuce); 5% formic acid on corn starch): 100
germination rate potting mix sand (Lactuca sativa (lettuce); 5% formic acid on sand): 20
germination rate soil (silty clay loam) sand (Lactuca sativa (lettuce); 5% formic acid on sand): 100
survival of planted seedlings (apple seedlings; "By week 1, however, and in all subsequent weeks", identical to water group): 100%
residual herbicidal effect lasting (apple seedlings; formic acid on charcoal in watered soil): less than one week
planted seedlings survived (apple seedlings; week 1, flats treated with charcoal immersed in formic acid, water flats 100 percent): 80%
killing of foliage of radish plants [4]: completely killed all the foliage
wheat foliage killed ([5]; foliar spray 1%): none of the foliage killed
wheat plants killed ([5]; foliar spray 5%): 10%

From US20070281857A1, “FORMIC ACID AS AN HERBICIDE” (MARRONE ORGANIC INNOVATIONS, priority 2006, published 2007)
